Assay results from the kinase profiling compilation of Christmann-Franck et al. (2016).

How the values were obtained:
Assay in all cases: radiometric filter-binding kinase assay, Kinase HotSpot
Settings in all cases: compound 0.5 µM; ATP 10 µM
TLK2 (human) = TLK2 (human) (UniProt Q86UE8)
TTK (human) = TTK (human) (UniProt P33981)
WNK2 (human) = WNK2 (human) (UniProt Q9Y3S1)
ULK3 (human) = ULK3 (human) (UniProt Q6PHR2)
DCLK2 (human) = DCLK2 (human) (UniProt Q8N568)
IRAK1 (human) = IRAK1 (human) (UniProt P51617)
Sequence of IRAK1 (human) (P51617 whole entry, looked up): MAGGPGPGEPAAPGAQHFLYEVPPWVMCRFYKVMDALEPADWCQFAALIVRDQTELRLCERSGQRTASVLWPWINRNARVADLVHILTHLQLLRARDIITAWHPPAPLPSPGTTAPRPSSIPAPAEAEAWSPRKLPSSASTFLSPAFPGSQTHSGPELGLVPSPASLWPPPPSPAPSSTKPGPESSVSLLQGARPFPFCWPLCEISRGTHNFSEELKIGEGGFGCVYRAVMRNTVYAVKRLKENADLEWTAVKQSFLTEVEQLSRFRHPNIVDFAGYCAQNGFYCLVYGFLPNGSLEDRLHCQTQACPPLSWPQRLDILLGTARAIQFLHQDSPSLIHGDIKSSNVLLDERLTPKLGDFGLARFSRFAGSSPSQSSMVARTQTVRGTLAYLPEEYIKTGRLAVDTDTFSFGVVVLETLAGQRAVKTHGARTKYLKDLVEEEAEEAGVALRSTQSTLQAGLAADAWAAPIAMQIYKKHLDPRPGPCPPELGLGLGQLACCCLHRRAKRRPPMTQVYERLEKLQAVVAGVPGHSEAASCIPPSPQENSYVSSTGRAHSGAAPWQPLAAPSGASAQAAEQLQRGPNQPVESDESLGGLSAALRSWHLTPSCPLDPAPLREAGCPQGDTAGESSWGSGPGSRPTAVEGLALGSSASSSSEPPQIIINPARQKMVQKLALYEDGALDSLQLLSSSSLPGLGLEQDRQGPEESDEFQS

MARK1 (human) = MARK1 (human) (UniProt Q9P0L2)
GSG2 (human) = GSG2 (human) (UniProt Q8TF76)
STK4 (human) = STK4 (human) (UniProt Q13043)
MYO3B (human) = MYO3B (human) (UniProt Q8WXR4)
NEK3 (human) = NEK3 (human) (UniProt P51956)
[1] = system: MKNK1 (human), Q9BUB5 [T385D; 165-205 del]
RPS6KA3 KD1 KD2 (human) = RPS6KA3 KD1 KD2 (human) (UniProt P51812)
MATK (human) = MATK (human) (UniProt P42679)
Sequence of MATK (human) (P42679 whole entry, looked up): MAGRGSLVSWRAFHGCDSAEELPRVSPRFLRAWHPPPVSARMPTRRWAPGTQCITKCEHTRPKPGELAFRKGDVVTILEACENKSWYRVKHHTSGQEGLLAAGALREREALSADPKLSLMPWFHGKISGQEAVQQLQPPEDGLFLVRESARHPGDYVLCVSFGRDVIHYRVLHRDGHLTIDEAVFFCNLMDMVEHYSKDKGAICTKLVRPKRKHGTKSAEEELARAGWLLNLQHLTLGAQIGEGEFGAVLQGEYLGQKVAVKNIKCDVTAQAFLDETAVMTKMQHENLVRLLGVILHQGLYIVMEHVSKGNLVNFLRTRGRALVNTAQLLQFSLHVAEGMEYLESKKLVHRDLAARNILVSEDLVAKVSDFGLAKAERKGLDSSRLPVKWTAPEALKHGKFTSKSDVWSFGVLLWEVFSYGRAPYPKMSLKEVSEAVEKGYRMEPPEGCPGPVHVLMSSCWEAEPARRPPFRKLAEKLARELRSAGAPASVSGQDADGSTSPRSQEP

EPHA6 (human) = EPHA6 (human) (UniProt Q9UF33)
NUAK2 (human) = NUAK2 (human) (UniProt Q9H093)
PDGFRA (human) = PDGFRA (human) (UniProt P16234)
OXSR1 (human) = OXSR1 (human) (UniProt O95747)
BRSK2 (human) = BRSK2 (human) (UniProt Q8IWQ3)
WEE1 (human) = WEE1 (human) (UniProt P30291)
Sequence of WEE1 (human) (P30291 whole entry, looked up): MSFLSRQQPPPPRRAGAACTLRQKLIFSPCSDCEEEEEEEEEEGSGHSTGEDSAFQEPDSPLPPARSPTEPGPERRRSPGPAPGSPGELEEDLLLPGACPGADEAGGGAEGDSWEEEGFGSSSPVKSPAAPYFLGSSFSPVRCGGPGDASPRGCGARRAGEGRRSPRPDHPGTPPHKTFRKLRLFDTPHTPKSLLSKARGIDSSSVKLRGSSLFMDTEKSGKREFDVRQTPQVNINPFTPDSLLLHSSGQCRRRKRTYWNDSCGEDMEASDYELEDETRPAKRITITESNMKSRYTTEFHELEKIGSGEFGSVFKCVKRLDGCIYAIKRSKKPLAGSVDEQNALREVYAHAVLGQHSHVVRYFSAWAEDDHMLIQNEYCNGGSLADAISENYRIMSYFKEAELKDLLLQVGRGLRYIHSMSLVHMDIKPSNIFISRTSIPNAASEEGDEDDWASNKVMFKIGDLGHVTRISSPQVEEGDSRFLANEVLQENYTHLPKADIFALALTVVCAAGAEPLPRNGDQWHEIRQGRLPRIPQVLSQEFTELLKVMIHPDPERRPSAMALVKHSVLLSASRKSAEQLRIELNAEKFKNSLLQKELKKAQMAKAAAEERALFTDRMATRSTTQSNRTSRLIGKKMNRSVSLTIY

CHEK1 (human) = CHEK1 (human) (UniProt O14757)
PHKG2 (human) = PHKG2 (human) (UniProt P15735)
NLK (human) = NLK (human) (UniProt Q9UBE8)
Sequence of NLK (human) (Q9UBE8 whole entry, looked up): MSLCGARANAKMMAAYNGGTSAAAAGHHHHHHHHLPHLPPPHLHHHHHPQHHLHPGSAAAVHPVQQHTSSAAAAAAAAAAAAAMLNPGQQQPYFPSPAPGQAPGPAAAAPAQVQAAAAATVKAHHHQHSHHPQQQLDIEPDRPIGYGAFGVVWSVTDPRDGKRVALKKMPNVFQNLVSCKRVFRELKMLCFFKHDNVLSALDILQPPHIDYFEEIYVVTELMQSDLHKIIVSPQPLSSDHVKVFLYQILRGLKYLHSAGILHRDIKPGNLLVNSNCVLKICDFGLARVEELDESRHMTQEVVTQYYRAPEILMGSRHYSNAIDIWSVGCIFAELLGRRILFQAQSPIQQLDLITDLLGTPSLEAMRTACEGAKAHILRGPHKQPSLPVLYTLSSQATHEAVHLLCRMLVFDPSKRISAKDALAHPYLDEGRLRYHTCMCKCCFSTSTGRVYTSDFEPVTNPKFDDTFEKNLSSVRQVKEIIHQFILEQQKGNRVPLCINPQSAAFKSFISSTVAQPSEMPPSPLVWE

CAMK2D (human) = CAMK2D (human) (UniProt Q13557)
Sequence of CAMK2D (human) (Q13557 whole entry, looked up): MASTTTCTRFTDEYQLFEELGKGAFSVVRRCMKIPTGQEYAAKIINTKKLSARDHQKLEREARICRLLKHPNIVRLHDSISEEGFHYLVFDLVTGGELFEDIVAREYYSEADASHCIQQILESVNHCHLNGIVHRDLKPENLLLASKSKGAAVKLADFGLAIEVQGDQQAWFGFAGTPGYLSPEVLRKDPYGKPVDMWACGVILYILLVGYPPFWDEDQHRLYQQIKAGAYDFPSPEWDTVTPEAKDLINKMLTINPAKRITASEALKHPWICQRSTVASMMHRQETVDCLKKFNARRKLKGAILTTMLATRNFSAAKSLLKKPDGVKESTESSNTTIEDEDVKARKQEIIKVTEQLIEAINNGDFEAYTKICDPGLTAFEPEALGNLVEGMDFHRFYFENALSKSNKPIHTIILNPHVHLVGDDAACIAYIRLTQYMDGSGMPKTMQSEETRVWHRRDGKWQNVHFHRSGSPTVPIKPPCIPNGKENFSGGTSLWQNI

DYRK3 (human) = DYRK3 (human) (UniProt O43781)
ADRBK2 (human) = ADRBK2 (human) (UniProt P35626)
STK38 (human) = STK38 (human) (UniProt Q15208)
ROCK1 (human) = ROCK1 (human) (UniProt Q13464)
ALK (human) = ALK (human) (UniProt Q9UM73)
[2] = system: FLT4 (human), P35916 [Q890H]
MAPK1 (human) = MAPK1 (human) (UniProt P28482)
Sequence of MAPK1 (human) (P28482 whole entry, looked up): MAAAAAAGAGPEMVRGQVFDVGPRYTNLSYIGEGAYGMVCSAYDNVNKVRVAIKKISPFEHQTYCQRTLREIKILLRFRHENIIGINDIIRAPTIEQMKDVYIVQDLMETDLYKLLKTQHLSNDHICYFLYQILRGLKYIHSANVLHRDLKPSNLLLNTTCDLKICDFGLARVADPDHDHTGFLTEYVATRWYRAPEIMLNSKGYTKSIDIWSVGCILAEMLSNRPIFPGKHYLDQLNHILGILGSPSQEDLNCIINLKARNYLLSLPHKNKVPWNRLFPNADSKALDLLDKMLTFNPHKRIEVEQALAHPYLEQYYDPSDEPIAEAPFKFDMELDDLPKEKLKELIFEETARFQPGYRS

DAPK1 (human) = DAPK1 (human) (UniProt P53355)
CDK4 CCND3 (human) = CDK4 CCND3 (human) (UniProt P30281+P11802)
SIK2 (human) = SIK2 (human) (UniProt Q9H0K1)
DSTYK (human) = DSTYK (human) (UniProt Q6XUX3)
PBK (human) = PBK (human) (UniProt Q96KB5)
CDK4 CCND1 (human) = CDK4 CCND1 (human) (UniProt P24385+P11802)
AKT2 (human) = AKT2 (human) (UniProt P31751)
CDK7 CCNH MNAT1 (human) = CDK7 CCNH MNAT1 (human) (UniProt P50613+P51948+P51946)
SRPK2 (human) = SRPK2 (human) (UniProt P78362)
TNK2 (human) = TNK2 (human) (UniProt Q07912)
FLT3 (human) = FLT3 (human) (UniProt P36888)
Sequence of FLT3 (human) (P36888 whole entry, looked up): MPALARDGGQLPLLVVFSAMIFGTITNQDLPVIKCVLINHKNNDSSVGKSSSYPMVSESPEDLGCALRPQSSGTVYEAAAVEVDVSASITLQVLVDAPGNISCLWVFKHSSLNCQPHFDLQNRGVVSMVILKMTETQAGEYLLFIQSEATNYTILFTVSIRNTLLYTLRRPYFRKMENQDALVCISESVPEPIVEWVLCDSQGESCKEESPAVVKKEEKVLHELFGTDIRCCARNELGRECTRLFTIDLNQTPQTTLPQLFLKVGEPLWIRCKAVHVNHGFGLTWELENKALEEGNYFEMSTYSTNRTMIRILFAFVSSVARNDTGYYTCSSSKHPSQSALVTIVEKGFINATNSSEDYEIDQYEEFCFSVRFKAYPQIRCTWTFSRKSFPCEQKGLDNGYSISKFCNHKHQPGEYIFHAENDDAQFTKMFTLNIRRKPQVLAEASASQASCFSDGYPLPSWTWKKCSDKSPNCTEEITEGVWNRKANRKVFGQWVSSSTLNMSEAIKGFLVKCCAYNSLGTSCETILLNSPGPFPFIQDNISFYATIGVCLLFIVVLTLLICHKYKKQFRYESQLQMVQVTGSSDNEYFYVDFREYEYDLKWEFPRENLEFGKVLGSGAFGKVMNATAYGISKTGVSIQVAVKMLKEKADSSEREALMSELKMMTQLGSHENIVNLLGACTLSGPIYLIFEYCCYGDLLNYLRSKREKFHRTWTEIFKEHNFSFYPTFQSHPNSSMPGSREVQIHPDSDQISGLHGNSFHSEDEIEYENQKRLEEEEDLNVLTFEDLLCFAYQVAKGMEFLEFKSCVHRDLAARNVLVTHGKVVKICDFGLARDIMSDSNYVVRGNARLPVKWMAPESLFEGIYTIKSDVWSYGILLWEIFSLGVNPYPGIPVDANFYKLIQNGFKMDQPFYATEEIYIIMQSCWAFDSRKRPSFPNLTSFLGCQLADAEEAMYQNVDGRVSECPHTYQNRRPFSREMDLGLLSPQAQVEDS

Sequence of DCLK2 (human) (Q8N568 whole entry, looked up): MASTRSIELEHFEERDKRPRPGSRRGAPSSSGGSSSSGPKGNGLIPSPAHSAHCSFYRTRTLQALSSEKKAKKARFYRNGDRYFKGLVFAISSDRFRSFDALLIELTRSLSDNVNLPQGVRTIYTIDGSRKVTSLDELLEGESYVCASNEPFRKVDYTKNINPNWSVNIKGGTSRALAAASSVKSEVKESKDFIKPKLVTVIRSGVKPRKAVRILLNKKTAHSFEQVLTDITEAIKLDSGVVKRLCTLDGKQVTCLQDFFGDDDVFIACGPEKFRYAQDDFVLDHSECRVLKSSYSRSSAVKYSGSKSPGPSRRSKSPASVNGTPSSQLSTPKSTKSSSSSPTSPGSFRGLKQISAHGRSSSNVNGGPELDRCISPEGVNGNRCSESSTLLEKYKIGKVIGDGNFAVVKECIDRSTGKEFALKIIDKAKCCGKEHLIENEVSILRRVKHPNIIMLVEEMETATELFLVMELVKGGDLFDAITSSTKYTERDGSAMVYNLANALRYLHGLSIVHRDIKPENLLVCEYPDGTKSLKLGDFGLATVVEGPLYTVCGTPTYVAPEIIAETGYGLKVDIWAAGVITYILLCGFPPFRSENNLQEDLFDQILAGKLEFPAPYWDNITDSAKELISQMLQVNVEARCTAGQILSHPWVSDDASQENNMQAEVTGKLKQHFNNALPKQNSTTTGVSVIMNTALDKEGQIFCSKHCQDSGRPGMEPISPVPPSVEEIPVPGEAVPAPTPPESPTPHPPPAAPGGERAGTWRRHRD

Compound | residual activity (TTK (human)) [%] | residual activity (WNK2 (human)) [%] | residual activity (DCLK2 (human)) [%] | residual activity (IRAK1 (human)) [%] | residual activity (MARK1 (human)) [%] | residual activity (GSG2 (human)) [%] | residual activity (STK4 (human)) [%] | residual activity (NEK3 (human)) [%] | residual activity [1] [%] | residual activity (MATK (human)) [%] | residual activity (NUAK2 (human)) [%] | residual activity (PDGFRA (human)) [%] | residual activity (OXSR1 (human)) [%] | residual activity (BRSK2 (human)) [%] | residual activity (WEE1 (human)) [%] | residual activity (CHEK1 (human)) [%] | residual activity (PHKG2 (human)) [%] | residual activity (NLK (human)) [%] | residual activity (CAMK2D (human)) [%] | residual activity (DYRK3 (human)) [%] | other results
CO[C@@H]1[C@H](N(C)C(=O)c2ccccc2)C[C@H]2O[C@]1(C)n1c3ccccc3c3c4c(c5c6ccccc6n2c5c31)C(=O)NC4 | 55 | 111 | 101 | 86.3 | 4.09 | 70.2 | 5.58 | 107 | 92.7 | 113 | 26.2 | 30 | 98.2 | 16.4 | 89.3 | 53 | 79.7 | 96.9 | 17.3 | 98.5 | residual activity (TLK2 (human)): 75%; residual activity (ULK3 (human)): 37%; residual activity (MYO3B (human)): 53.7%; residual activity (RPS6KA3 KD1 KD2 (human)): 3.19%; residual activity (EPHA6 (human)): 79.5%; residual activity (ADRBK2 (human)): 97.5%; residual activity (STK38 (human)): 83.8%; residual activity (ROCK1 (human)): 85.3%; residual activity (ALK (human)): 49.2%; residual activity [2]: 10.9%; residual activity (MAPK1 (human)): 88.8%; residual activity (DAPK1 (human)): 84%
COc1ccc2c(c1)/C(=C/c1cnc[nH]1)C(O)=N2 | 59.9 | 102 | 96 | 101 | 50.4 | 72.2 | 5.67 | 87.8 | 88.4 | 92.3 | 116 | 94.9 | 97.3 | 61.7 | 94.2 | 76 | 88.3 | 69.7 | 78.8 | 98.6 | residual activity (CDK4 CCND3 (human)): 49.6%; residual activity (ULK3 (human)): 67.9%; residual activity (SIK2 (human)): 100%; residual activity (DSTYK (human)): 106%; residual activity (MYO3B (human)): 88%; residual activity (EPHA6 (human)): 91.3%; residual activity (PBK (human)): 124%; residual activity (CDK4 CCND1 (human)): 33.7%; residual activity (ADRBK2 (human)): 101%; residual activity (STK38 (human)): 86.2%; residual activity (ROCK1 (human)): 96%; residual activity (AKT2 (human)): 106%; residual activity (CDK7 CCNH MNAT1 (human)): 84.2%; residual activity (ALK (human)): 112%; residual activity [2]: 66.4%; residual activity (SRPK2 (human)): 101%; residual activity (MAPK1 (human)): 93.1%; residual activity (DAPK1 (human)): 105%; residual activity (TNK2 (human)): 92.6%; residual activity (FLT3 (human)): 9.29%
Ic1cccc(CSc2nnc(-c3ccncc3)o2)c1 | 103 | 99.5 | 100 | 121 | 111 | 95.9 | 102 | 86.9 | 109 | 94.3 | 98.9 | 90.1 | 105 | 99.3 | 97.2 | 96.3 | 105 | 107 | 96.8 | 108 | residual activity (CDK4 CCND3 (human)): 97.5%; residual activity (SIK2 (human)): 100%; residual activity (DSTYK (human)): 94.8%; residual activity (RPS6KA3 KD1 KD2 (human)): 96.4%; residual activity (PBK (human)): 62.7%; residual activity (CDK4 CCND1 (human)): 96.3%; residual activity (ADRBK2 (human)): 103%; residual activity (ROCK1 (human)): 88%; residual activity (AKT2 (human)): 101%; residual activity (CDK7 CCNH MNAT1 (human)): 96.7%; residual activity (ALK (human)): 101%; residual activity [2]: 96.2%; residual activity (SRPK2 (human)): 97.4%; residual activity (MAPK1 (human)): 107%; residual activity (DAPK1 (human)): 90.3%; residual activity (TNK2 (human)): 101%; residual activity (FLT3 (human)): 102%
COc1ccc(Cl)cc1NC(=O)Nc1cc(C)nc2ccccc12 | 103 | 104 | 96.5 | 91.2 | 102 | 95.7 | 98.7 | 114 | 101 | 98.2 | 100 | 88.5 | 101 | 95.2 | 89 | 96.6 | 98.6 | 94.5 | 98.2 | 106 | residual activity (CDK4 CCND3 (human)): 98.5%; residual activity (SIK2 (human)): 87.8%; residual activity (DSTYK (human)): 98.8%; residual activity (RPS6KA3 KD1 KD2 (human)): 96.2%; residual activity (PBK (human)): 98.5%; residual activity (CDK4 CCND1 (human)): 98.8%; residual activity (ADRBK2 (human)): 103%; residual activity (ROCK1 (human)): 100%; residual activity (AKT2 (human)): 94.9%; residual activity (CDK7 CCNH MNAT1 (human)): 101%; residual activity (ALK (human)): 99.2%; residual activity [2]: 100%; residual activity (SRPK2 (human)): 94.9%; residual activity (MAPK1 (human)): 90.4%; residual activity (DAPK1 (human)): 93.3%; residual activity (TNK2 (human)): 102%; residual activity (FLT3 (human)): 94.4%
O=C1NC(=O)c2c1c1c3ccccc3[nH]c1n1cncc21 | 79 | 86.6 | 82.3 | 83.1 | 36.7 | 33.5 | 42.7 | 89.3 | 56.3 | 99.8 | 80.1 | 84.4 | 97.2 | 29.7 | 94.7 | 24.6 | 108 | 87.9 | 36.7 | 85.8 | residual activity (CDK4 CCND3 (human)): 87.1%; residual activity (SIK2 (human)): 91.9%; residual activity (DSTYK (human)): 106%; residual activity (RPS6KA3 KD1 KD2 (human)): 47.4%; residual activity (PBK (human)): 72.4%; residual activity (CDK4 CCND1 (human)): 86%; residual activity (ADRBK2 (human)): 109%; residual activity (ROCK1 (human)): 95.9%; residual activity (AKT2 (human)): 121%; residual activity (CDK7 CCNH MNAT1 (human)): 92.3%; residual activity (ALK (human)): 84.6%; residual activity [2]: 56.6%; residual activity (SRPK2 (human)): 80.2%; residual activity (MAPK1 (human)): 125%; residual activity (DAPK1 (human)): 26.6%; residual activity (TNK2 (human)): 41.3%; residual activity (FLT3 (human)): 9.86%
